Patent publication US4226857A, “Synthetic peptides having pituitary growth hormone releasing activity” (priority 1979, dated 1980)
Square brackets hold non-standard residues; d marks the D form. Peptide text beside a SMILES is read from it.

Test system: pituitaries
Assay: In vitro growth hormone release study (rat pituitary incubation, GH radioimmunoassay)
Assay type: cell-based
Conditions: pituitaries of 20 day old female rats, Δ of GH levels between I3, I4 and P2, ± SEM
Protocol: Female rats of the CD-1 strain were housed in a constant temperature room at 24° C. with 14 hours light and 10 hours darkness. The rats were fed Purina brand rat chow ab libitum.
All studies were started between 0800 and 1000 hours.
Pituitaries were removed from 20 day old female rats. Two pituitaries were incubated at 36° C. in 1 ml of lactated Ringer's solution in 10 ml polytetrafluoroethylene beakers in a Dubnoff Shaker (90 cycles/min.). The pituitaries were incubated a total of 4 hours (P1, P2, I3, and I4). After two successive one hour preincubation periods (P1, P2), the peptide was added to the incubation medium hourly for 2 hours (I3, I4).
This in vitro study was performed in triplicate and a standard radioimmunoassay of growth hormone present in the incubation medium was performed in duplicate. The hormonal activity was calculated as the difference (Δ) of growth hormone (GH) levels between I3, I4 and P2, i.e., (I3 -P2) and (I4 -P2). P values were calculated by Students' t test using six growth hormone values for each value recorded.
The growth hormone radioimmunoassay reagents were distributed by the National Institute of Arthritis and […] (NIAMDD) program. The growth hormone values were calculated in terms of nanograms (ng) of a rat standard with a growth hormone potency of 0.61 units/mg.

[1] = peptide 0.1μg, P <0.001 unless otherwise noted

**Q.** `C[C@H](NC(=O)[C@@H](Cc1c[nH]c2ccccc12)NC(=O)[C@@H](N)Cc1ccc(O)cc1)C(=O)N[C@@H](Cc1c[nH]c2ccccc12)C(=O)N[C@H](Cc1ccccc1)C(N)=O` [H2 N--Tyr--D-Trp--Ala--Trp--D-Phe--CONH2, H2 N-Tyr-D-Trp-Ala-Trp-D-Phe-CONH2] (H-Y[dW]AW[dF]-NH2) was tested. Which “In vitro growth hormone release (ΔGH)” value [1] did it give?
**A.** 3409 ± 455 ngΔGH/ml incubation medium

**Q.** And the “In vitro growth hormone release (ΔGH)” value (peptide 0.3μg, P <0.001)?
**A.** 4540 ± 1200 ngΔGH/ml incubation medium

**Q.** And the “In vitro growth hormone release (ΔGH)” value (peptide 1μg, P <0.001)?
**A.** 4611 ± 510 ngΔGH/ml incubation medium

**Q.** What about the “In vitro growth hormone release (ΔGH)” value (peptide 10μg, P <0.001) of the same molecule?
**A.** 5000 ± 662 ngΔGH/ml incubation medium

**Q.** For `NC(=O)[C@@H](Cc1ccccc1)NC(=O)[C@H](Cc1c[nH]c2ccccc12)NC(=O)[C@H](CO)NC(=O)[C@@H](Cc1c[nH]c2ccccc12)NC(=O)[C@@H](N)Cc1ccc(O)cc1` [H2 N--Tyr--D-Trp--Ser--Trp--D-Phe--CONH2, H2 N-Tyr-D-Trp-Ser-Trp-D-Phe-CONH2] (H-Y[dW]SW[dF]-NH2), which “In vitro growth hormone release (ΔGH)” value [1] is on record?
**A.** 353 ± 144 ngΔGH/ml incubation medium

**Q.** What about the “In vitro growth hormone release (ΔGH)” value (peptide 1μg, P <0.001) of the same molecule?
**A.** 3119 ± 413 ngΔGH/ml incubation medium

**Q.** What about the “In vitro growth hormone release (ΔGH)” value (peptide 10μg, P <0.001) of the same molecule?
**A.** 3831 ngΔGH/ml incubation medium
